Experimental findings from doi:10.1101/2024.02.20.581179v1, “Regulated mRNA recruitment in dinoflagellates is reflected in hyper-variable mRNA spliced leaders and novel eIF4Es” (biorxiv, 2024) are described below.

Holding throughout (type): binding
One test addresses T1, eIF4E-2a (Amphidinium carterae, UniProt A0A109QBD6).
T1 construct: N-terminal GST tag (TEV site), E. coli, GST-fusion dimer, tag kept
T1 sequence (A0A109QBD6 1-255): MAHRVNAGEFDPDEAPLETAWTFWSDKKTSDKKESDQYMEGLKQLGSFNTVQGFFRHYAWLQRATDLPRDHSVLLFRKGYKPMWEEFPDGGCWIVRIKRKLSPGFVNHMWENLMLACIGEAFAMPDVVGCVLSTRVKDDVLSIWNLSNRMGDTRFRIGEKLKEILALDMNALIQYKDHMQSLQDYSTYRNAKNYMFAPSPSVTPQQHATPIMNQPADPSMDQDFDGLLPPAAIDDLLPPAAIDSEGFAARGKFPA
Description: SPR, Biacore T-200, steady state. An excerpt:
SPR, Biacore T-200, steady state on eIF4E-2a
A general note: SPR reads the build-up and loss of mass on a sensor chip optically.

Test [1] has as its target T2, mouse eIF4E-1 (Mus musculus, UniProt P63073).
T2 construct: N-terminal GST tag, E. coli, GST-fusion dimer, tag kept
Description: SPR, Biacore T-200, steady state.

Test [2] deals with T3, eIF4E-1d1 (Amphidinium carterae, UniProt A0A0X9VJN7).
T3 construct: gene eIF4E-1d; N-terminal GST tag (TEV site), E. coli, GST-fusion dimer, tag kept (SPR); S-tagged in vitro translated protein in bead assay
T3 sequence (A0A0X9VJN7 1-239): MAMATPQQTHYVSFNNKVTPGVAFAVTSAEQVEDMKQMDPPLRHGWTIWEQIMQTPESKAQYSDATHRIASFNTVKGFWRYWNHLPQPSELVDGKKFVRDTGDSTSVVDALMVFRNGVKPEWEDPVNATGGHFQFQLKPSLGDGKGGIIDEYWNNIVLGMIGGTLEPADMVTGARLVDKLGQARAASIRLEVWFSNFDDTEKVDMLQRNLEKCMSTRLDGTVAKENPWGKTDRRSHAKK
Description: SPR, Biacore T-200, steady state.

The next test deals with T4, eIF4E-1a (Amphidinium carterae, UniProt A0A0X9W7I2).
T4 construct: N-terminal GST tag (TEV site), pGEX-4T(MCS)-TEV, E. coli Rosetta(DE3)pLysS, DTT treated, GST-fusion dimer by gel filtration; tag kept
T4 sequence (A0A0X9W7I2 1-233): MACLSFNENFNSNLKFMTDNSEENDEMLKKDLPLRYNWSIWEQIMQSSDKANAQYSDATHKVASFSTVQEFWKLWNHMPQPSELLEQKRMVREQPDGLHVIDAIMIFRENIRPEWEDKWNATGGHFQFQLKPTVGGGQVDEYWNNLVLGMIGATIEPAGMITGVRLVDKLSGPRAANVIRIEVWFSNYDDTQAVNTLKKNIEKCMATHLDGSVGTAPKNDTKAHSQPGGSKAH
Description: SPR, Biacore T-200, steady state.

Test [3] has as its target T3, eIF4E-1d1. Description: cap-Sepharose pull-down of […] in vitro translated protein. The settings on record: ligand immobilised on Sepharose; S-tagged protein; 25 mM HEPES/KOH pH 7.2, 150 mM KCl, 200 μM GTP, 4 °C.
A further test has as its target T5, eIF4E-1c (Amphidinium carterae, UniProt A0A0X9VF44).
T5 construct: N-terminal S-tag, pCITE-4a, in vitro transcription/translation in rabbit reticulocyte lysate, 35S-Met labelled
T5 sequence (A0A0X9VF44 1-244): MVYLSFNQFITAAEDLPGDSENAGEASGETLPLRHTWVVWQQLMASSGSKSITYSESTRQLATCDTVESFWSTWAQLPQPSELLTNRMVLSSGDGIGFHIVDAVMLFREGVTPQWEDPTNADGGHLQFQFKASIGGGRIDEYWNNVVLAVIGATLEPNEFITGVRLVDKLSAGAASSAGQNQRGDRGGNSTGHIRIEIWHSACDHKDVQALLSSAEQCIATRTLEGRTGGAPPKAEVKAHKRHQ
The description is as above. The settings on record: ligand immobilised on Sepharose; S-tagged protein; 25 mM HEPES/KOH pH 7.2, 150 mM KCl, 200 μM GTP, 4 °C.

For test [4], the target named is T3, eIF4E-1d1. The test is described as follows: SPR, Biacore T-200, kinetic fit. An excerpt: SPR, Biacore T-200, kinetic fit on eIF4E-1d1
Test [5] has as its target T2, mouse eIF4E-1. Description: SPR, Biacore T-200, kinetic fit. An excerpt: SPR, Biacore T-200, kinetic fit on mouse eIF4E-1

T2 sequence (P63073 2-217): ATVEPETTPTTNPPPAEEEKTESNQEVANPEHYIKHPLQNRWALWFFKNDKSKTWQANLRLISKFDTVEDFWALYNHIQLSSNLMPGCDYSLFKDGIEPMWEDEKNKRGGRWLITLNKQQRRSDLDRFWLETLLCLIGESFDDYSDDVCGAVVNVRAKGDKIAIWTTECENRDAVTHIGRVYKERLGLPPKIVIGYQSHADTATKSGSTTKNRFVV

The Kd is the constant that tells how readily two partners part at equilibrium. A high value points to a looser complex. For the compound `Nc1nc2c(ncn2[C@@H]2O[C@H](COP(=O)(O)OP(=O)(O)OP(=O)(O)OC[C@H]3O[C@@H](n4cnc5c(=O)[nH]c(N)nc54)[C@H](O)[C@@H]3O)[C@@H](O)[C@H]2O)c(=O)[nH]1` [GpppG], the Kd on eIF4E-2a is 665 ± 19 µM; at mouse eIF4E-1 [1], 316 ± 38 µM; on eIF4E-1d1 [2], 1010 ± 110 µM; at eIF4E-1a it was 1730 ± 3700 µM.

Regarding `CN(C)c1nc2c(c(=O)[nH]1)[n+](C)cn2[C@@H]1O[C@H](COP(=O)(O)OP(=O)(O)OP(=O)(O)O)[C@@H](O)[C@H]1O` [TMG], the “cap-Sepharose pull-down of 35S in vitro translated protein” value at eIF4E-1d1 [3] was “eIF4E-1c and eIF4E-1d1 showed some affinity for the TMG cap analogue”; at eIF4E-1c it was “eIF4E-1c and eIF4E-1d1 showed some affinity for the TMG cap analogue”.

On to `C[n+]1cn([C@@H]2O[C@H](COP(=O)(O)OP(=O)(O)OP(=O)(O)OC[C@H]3O[C@@H](n4ccc(N)nc4=O)[C@H](O)[C@@H]3O)[C@@H](O)[C@H]2O)c2nc(N)[nH]c(=O)c21` [m^7GpppC], for which the Kd is 82.4 µM on eIF4E-1d1 [4], 69.8 µM at mouse eIF4E-1 [5] and 10.8 ± 3.1 µM on eIF4E-1a.

On to `C[n+]1cn([C@@H]2O[C@H](COP(=O)(O)OP(=O)(O)OP(=O)(O)OC[C@H]3O[C@@H](n4cnc5c(=O)[nH]c(N)nc54)[C@H](O)[C@@H]3O)[C@@H](O)[C@H]2O)c2nc(N)[nH]c(=O)c21` [m^7GpppG], for which the Kd at eIF4E-2a turned out to be 469 ± 220 µM; on mouse eIF4E-1 [1], 59.7 ± 49.3 µM; at eIF4E-1d1 [2] it was 34.5 ± 18.6 µM; at eIF4E-1a, 17.5 ± 4.68 µM.
